Converted amounts (≈) assume the structure as drawn. Like-named read-outs stand apart in the source and are kept apart here.
Experiments:
Escherichia Coli MC 4100 = assay: MIC broth microdilution, E. coli MC 4100 (wild type); type: cell-based; conditions: E. coli MC 4100
[1] = system: Pseudomonas aeruginosa PAM 1020; assay: MIC broth microdilution, P. aeruginosa PAM 1020 (wild type); type: cell-based; conditions: P. aeruginosa PAM 1020
[2] = system: Escherichia Coli MC 4100 AcrAB; assay: MIC broth microdilution, E. coli MC 4100 AcrAB (ΔAcrAB); type: cell-based; conditions: E. coli AcrAB
[3] = system: Escherichia Coli MC 4100 AcrAB UPA3r; assay: MIC broth microdilution, E. coli MC 4100 AcrAB UPA3r (ΔAcrAB, UPA resistant); type: cell-based; conditions: E. coli AcrAB UPA3^r
[4] = system: Pseudomonas aeruginosa PAM 1154; assay: MIC broth microdilution, P. aeruginosa PAM 1154 (OprM::Hg); type: cell-based; conditions: P. aeruginosa PAM 1154 OprM::Hg
[5] = system: Mycobacterium tuberculosis H37Rv; assay: MIC agar dilution, M. tuberculosis H37Rv; type: cell-based
[6] = system: Mycobacterium tuberculosis TN913; assay: MIC agar dilution, M. tuberculosis TN913; type: cell-based
[7] = system: Pseudomonas aeruginosa PAM 1135; assay: MIC broth microdilution, P. aeruginosa PAM 1135 (high level UPA resistance); type: cell-based; conditions: P. aeruginosa PAM 1135 UPA1^r
[8] = system: Staphylococcus aureus ATCC 29213; assay: MIC broth microdilution, S. aureus ATCC 29213 (wild type); type: cell-based; conditions: S. aureus ATCC 29213
[9] = system: Pseudomonas aeruginosa PAM 1323; assay: MIC broth microdilution, P. aeruginosa PAM 1323 (medium level UPA resistance); type: cell-based
[10] = system: Pasteurella multocida pm002; assay: MIC broth microdilution, P. multocida pm002 (wild type); type: cell-based
[11] = system: Staphylococcus aureus 8325-4; assay: MIC broth microdilution, S. aureus 8325-4 (wild type); type: cell-based; conditions: S. aureus 8325-4
[12] = system: Mycobacterium smegmatis ATCC 19420; assay: MIC broth microdilution, M. smegmatis ATCC 19420; conditions: 72 hours at 35° C., CAMHB
[13] = system: Mycobacterium fortuitum ATCC 6841; assay: MIC broth microdilution, M. fortuitum ATCC 6841; conditions: 72 hours at 35° C., CAMHB
[14] = agar dilution, Middlebrook 7H10 agar, four weeks at 35° C., 0, 1, 10 and 30 tested

Row | SMILES | MIC (μg/ml) Broth microdilution (Escherichia Coli MC 4100) [µg/mL] | MIC (μg/ml) Broth microdilution [1] [µg/mL] | MIC (μg/ml) Broth microdilution [2] [µg/mL] | MIC (μg/ml) Broth microdilution [3] [µg/mL] | MIC (μg/ml) Broth microdilution [4] [µg/mL] | MIC H37RV (SENSITIVE) [5] [µg/mL] | MIC TN913 (SENSITIVE) [6] [µg/mL] | MIC (μg/ml) Broth microdilution [7] [µg/mL] | MIC (μg/ml) Broth microdilution [8] [µg/mL] | MIC (μg/ml) Broth microdilution [9] [µg/mL] | MIC (μg/ml) Broth microdilution [10] [µg/mL] | MIC (μg/ml) Broth microdilution [11] [µg/mL] | MIC Broth microdilution M. smegmatis ATCC19420 [12] [µg/mL] | MIC Broth microdilution M. fortuitum ATCC 6841 [13] [µg/mL] | MIC H37RV (SENSITIVE) [5, 14] [µg/mL] | MIC TN913 (SENSITIVE) [6, 14] [µg/mL]
1 | CC(C)C[C@H](NC(=O)N[C@@H](Cc1c[nH]c2ccccc12)C(=O)O)C(=O)N[C@H](C(=O)NC[C@H]1C[C@@H](O)[C@H](n2ccc(=O)[nH]c2=O)O1)[C@H](C)N(C)C(=O)CN [Compound 109] | 128 (≈ 173 µM) | 4 (≈ 5.39 µM) | <1 | 8 (≈ 10.8 µM) | <1 | >30 | 30 (≈ 40.4 µM) | >512 | >512 | 128 (≈ 173 µM) | 128 (≈ 173 µM) | >512 | – | – | – | –
2 | CC(C)CC(N)C(=O)N(C)C(C)C(NC(=O)C(Cc1ccc(F)cc1)NC(=O)NC(Cc1c[nH]c2ccccc12)C(=O)O)C(=O)NCC1CC(O)C(n2ccc(=O)[nH]c2=O)O1 [Compound 117, 1-[5′-[(2S,3S)-N^2-[N-[[(1S)-1-Carboxy-2-indol-3-ylethyl]carbamoyl]-L-4-fluorophenylalanyl]-N^3-L-leucyl-N^3-methyl-2,3-diaminobutyramido]-3′,5′-dideoxy-α-L-arabinofuranosyl]uracil] | >512 | 64 (≈ 75.3 µM) | <1 | 32 (≈ 37.7 µM) | 64 (≈ 75.3 µM) | – | – | >512 | >512 | >512 | 256 (≈ 301 µM) | >512 | 8 (≈ 9.41 µM) | 64 (≈ 75.3 µM) | – | –
3 | C[C@@H]([C@H](NC(=O)[C@H](Cc1ccccc1)NC(=O)N[C@@H](Cc1c[nH]c2ccccc12)C(=O)O)C(=O)NC[C@H]1C[C@@H](O)[C@H](n2ccc(=O)[nH]c2=O)O1)N(C)C(=O)CN [Compound 128, 1-[5′-[(2S,3S)-N^2-[N-[[(1S)-1-Carboxy-2-indol-3-ylethyl]carbamoyl]-L-phenylalanyl]-N^3-glycyl-N^3-methyl-2,3-diaminobutyramido]-3′,5′-dideoxy-α-L-arabinofuranosyl]uracil] | 256 (≈ 330 µM) | 8 (≈ 10.3 µM) | 2 (≈ 2.58 µM) | 16 (≈ 20.6 µM) | <1 | – | – | >512 | >512 | >512 | 64 (≈ 82.5 µM) | 256 (≈ 330 µM) | 4 (≈ 5.16 µM) | 64 (≈ 82.5 µM) | – | –
4 | CC(N)C(=O)N(C)C(C)C(NC(=O)C(Cc1csc2ccccc12)NC(=O)NC(Cc1ccc(O)cc1)C(=O)O)C(=O)NCC1CC(O)C(n2ccc(=O)[nH]c2=O)O1 [Compound 130, 1-[5′-[(2S,3S)-N^3-L-Alanyl-N^2-[N-[[(1S)-1-carboxy-4-hydroxyphenethyl]carbamoyl]-L-benzothienylalanyl]-N^3-methyl-2,3-diaminobutyramidol-3′,5′-dideoxy-α-L-arabinofuranosyl]uracil] | 64 (≈ 77.8 µM) | 64 (≈ 77.8 µM) | 8 (≈ 9.72 µM) | 16 (≈ 19.4 µM) | 16 (≈ 19.4 µM) | – | – | >512 | 128 (≈ 156 µM) | >512 | 512 (≈ 622 µM) | 256 (≈ 311 µM) | 8 (≈ 9.72 µM) | 32 (≈ 38.9 µM) | – | –
5 | CC(N)C(=O)N(C)C(C)C(NC(=O)C(Cc1ccc(I)cc1)NC(=O)NC(Cc1ccc(O)cc1)C(=O)O)C(=O)NCC1CC(O)C(n2ccc(=O)[nH]c2=O)O1 [Compound 134, 1-[5′-[(2S,3S)-N^3-L-Alanyl-N^2-[N-[[(1S)-1-carboxy-4-hydroxyphenethyl]carbamoyl]-L-4-iodophenylalanyl]-N^3-methyl-2,3-diaminobutyramido]-3′,5′-dideoxy-α-L-arabinofuranosyl]uracil] | 128 (≈ 143 µM) | 256 (≈ 287 µM) | <1 | 32 (≈ 35.8 µM) | 32 (≈ 35.8 µM) | – | – | >512 | 512 (≈ 574 µM) | >512 | >512 | 512 (≈ 574 µM) | 16 (≈ 17.9 µM) | 32 (≈ 35.8 µM) | – | –
6 | CC(N)C(=O)N(C)C(C)C(NC(=O)C(Cc1ccc(Cl)cc1)NC(=O)NC(Cc1ccc(O)cc1)C(=O)O)C(=O)NCC1CC(O)C(n2ccc(=O)[nH]c2=O)O1 [Compound 135, 1-[5′-[(2S,3S)-N^3-L-Alanyl-N^2-[N-[[(1S)-1-carboxy-4-hydroxyphenethyl]carbamoyl]-L-4-chlorophenylalanyl]-N^3-methyl-2,3-diaminobutyramido]-3′,5′-dideoxy-α-L-arabinofuranosyl]uracil] | 8 (≈ 9.98 µM) | 64 (≈ 79.9 µM) | <1 | 2 (≈ 2.5 µM) | 16 (≈ 20 µM) | – | – | >512 | 512 (≈ 639 µM) | >512 | 512 (≈ 639 µM) | >512 | 16 (≈ 20 µM) | 64 (≈ 79.9 µM) | – | –
7 | CC(N)C(=O)N(C)C(C)C(NC(=O)C(CC1CCCCC1)NC(=O)NC(Cc1c[nH]c2ccccc12)C(=O)O)C(=O)NCC1CC(O)C(n2ccc(=O)[nH]c2=O)O1 [Compound 136, 1-[5-(2S 3S)-N^3-L-Alanyl-N^2-[N-[[(1S)-1-carboxy-2-indol-3-ylethyl]carbamoyl]-L-cyclohexylalanyl]-N^3-methyl-2,3-diaminobutyramido]-3′,5′-dideoxy-α-L-arabinofuranosyl]uracil] | >512 | 128 (≈ 161 µM) | 4 (≈ 5.03 µM) | 64 (≈ 80.4 µM) | 64 (≈ 80.4 µM) | – | – | >512 | >512 | >512 | >512 | >512 | 8 (≈ 10.1 µM) | 128 (≈ 161 µM) | – | –
8 | CC(C(NC(=O)C(Cc1ccccc1)NC(=O)NC(Cc1c[nH]c2ccccc12)C(=O)O)C(=O)NCC1CC(O)C(n2ccc(=O)[nH]c2=O)O1)N(C)C(=O)C(N)Cc1ccccc1 [Compound 156, 1-[5′-[(2S,3S)-N^2-[N-[[(1S)-1-Carboxy-2-indol-3-ylethyl]carbamoyl]-L-phenylalanyl]-N^3-L-phenylalanyl-N^3-methyl-2,3-diaminobutyramido]-3′,5′-dideoxy-α-L-arabinofuranosyl]uracil] | 512 (≈ 591 µM) | 32 (≈ 37 µM) | 4 (≈ 4.62 µM) | 512 (≈ 591 µM) | 32 (≈ 37 µM) | – | – | 256 (≈ 296 µM) | >512 | 256 (≈ 296 µM) | 256 (≈ 296 µM) | >512 | 16 (≈ 18.5 µM) | 256 (≈ 296 µM) | – | –
9 | C[C@H](N)C(=O)N(C)[C@@H](C)[C@H](NC(=O)[C@H](Cc1ccccc1)NC(=O)N[C@@H](Cc1ccc(O)cc1)C(=O)O)C(=O)NC[C@H]1C[C@@H](O)[C@H](n2ccc(=O)[nH]c2=O)O1 [Compound 160] | 32 (≈ 41.7 µM) | 16 (≈ 20.9 µM) | <1 | 4 (≈ 5.22 µM) | 8 (≈ 10.4 µM) | – | – | >512 | 512 (≈ 668 µM) | >512 | 256 (≈ 334 µM) | 512 (≈ 668 µM) | 16 (≈ 20.9 µM) | 128 (≈ 167 µM) | – | –
10 | C[C@H](NC(=O)N[C@@H](Cc1c[nH]c2ccccc12)C(=O)O)C(=O)N[C@H](C(=O)N/C=C1/C[C@@H](O)[C@H](n2ccc(=O)[nH]c2=O)O1)[C@H](C)N(C)C(=O)[C@@H](N)Cc1cccc(O)c1 [Pacidamycin 4, reference compound] | – | – | – | – | – | – | – | – | – | – | – | – | – | – | >30 | >30

Reference: patent publication US6482921B1, “Uridyl peptide antibiotic (UPA) derivatives, their synthesis and use” (Essential Therapeutics, Inc., priority 1999, dated 2002)
